# Experiments:
# [1] = target: human recombinant cytochrome P450 2C9 (Homo sapiens, UniProt P11712); assay: Biological Test Example 7: CYP2C9 inhibition ([O-methyl-14C]-Naproxen O-demethylation)
# [2] = target: human recombinant cytochrome P450 3A4 (Homo sapiens, UniProt P08684)
# Plasma protein = assay: Biological Test Example 5: fraction unbound in human plasma (equilibrium dialysis); assay type: in vitro ADME
# [3] = target: human recombinant cytochrome P450 2C19 (Homo sapiens, UniProt P33261); assay: Biological Test Example 8: CYP2C19 inhibition ([N-methyl-14C]-Diazepam N-demethylation)
# Chain of human recombinant cytochrome P450 2C19 (P33261 whole entry): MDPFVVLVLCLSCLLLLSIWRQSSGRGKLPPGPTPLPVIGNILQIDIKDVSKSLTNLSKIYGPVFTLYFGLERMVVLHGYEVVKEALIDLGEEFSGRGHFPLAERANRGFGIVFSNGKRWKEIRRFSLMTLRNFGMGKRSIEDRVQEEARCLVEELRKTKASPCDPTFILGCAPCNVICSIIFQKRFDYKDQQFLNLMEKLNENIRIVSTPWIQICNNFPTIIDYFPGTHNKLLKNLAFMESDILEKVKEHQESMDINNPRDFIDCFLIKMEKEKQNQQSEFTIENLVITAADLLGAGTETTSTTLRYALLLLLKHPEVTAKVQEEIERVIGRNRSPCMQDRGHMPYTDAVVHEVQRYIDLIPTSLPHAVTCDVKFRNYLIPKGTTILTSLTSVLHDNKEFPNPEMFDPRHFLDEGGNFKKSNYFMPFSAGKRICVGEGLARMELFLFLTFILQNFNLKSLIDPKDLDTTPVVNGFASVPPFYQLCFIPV
# Chain of human recombinant cytochrome P450 3A4 (P08684 whole entry): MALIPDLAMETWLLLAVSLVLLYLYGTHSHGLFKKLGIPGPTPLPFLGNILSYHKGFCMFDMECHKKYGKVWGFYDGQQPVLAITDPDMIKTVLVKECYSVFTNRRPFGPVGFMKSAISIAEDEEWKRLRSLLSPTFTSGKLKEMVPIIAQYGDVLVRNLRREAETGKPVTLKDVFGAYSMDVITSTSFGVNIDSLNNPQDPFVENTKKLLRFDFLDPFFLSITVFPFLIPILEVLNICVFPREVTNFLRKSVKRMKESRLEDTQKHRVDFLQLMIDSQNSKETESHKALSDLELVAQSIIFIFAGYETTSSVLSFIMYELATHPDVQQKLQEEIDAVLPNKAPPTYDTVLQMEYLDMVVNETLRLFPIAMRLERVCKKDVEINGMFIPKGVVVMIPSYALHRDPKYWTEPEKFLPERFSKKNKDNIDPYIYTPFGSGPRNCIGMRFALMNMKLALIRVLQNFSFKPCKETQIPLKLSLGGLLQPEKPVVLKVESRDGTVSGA
# Chain of human recombinant cytochrome P450 2C9 (P11712 whole entry): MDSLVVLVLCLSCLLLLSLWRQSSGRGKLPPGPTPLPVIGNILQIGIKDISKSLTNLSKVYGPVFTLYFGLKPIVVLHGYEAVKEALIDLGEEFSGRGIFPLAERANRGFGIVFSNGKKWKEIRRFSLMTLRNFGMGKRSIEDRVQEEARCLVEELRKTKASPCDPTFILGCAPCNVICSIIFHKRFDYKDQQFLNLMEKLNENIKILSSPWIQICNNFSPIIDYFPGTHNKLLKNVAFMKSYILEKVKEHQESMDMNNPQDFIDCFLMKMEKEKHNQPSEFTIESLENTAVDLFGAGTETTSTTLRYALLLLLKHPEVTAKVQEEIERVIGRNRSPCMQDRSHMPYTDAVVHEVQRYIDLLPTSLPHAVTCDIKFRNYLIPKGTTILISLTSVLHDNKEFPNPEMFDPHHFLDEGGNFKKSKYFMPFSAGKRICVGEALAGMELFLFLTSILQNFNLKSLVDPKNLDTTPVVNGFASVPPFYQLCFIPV
Structure (SMILES),IC50 [1] [µM],IC50 [2] [µM],IC50 [3] [µM],Biological Test Example 5 (%) (Plasma protein; Comparator Compounds),Biological Test Example 5 (%) (Plasma protein; Examples)
"C[C@@H](c1ccc(-c2ccc(=O)n(C3CC3)c2)cc1)N1CC[C@](CC(C)(C)O)(c2ccccc2)OC1=O [Example 3, (S)-3-((S)-1-(4-(1-cyclopropyl-6-oxo-1,6-dihydropyridin-3-yl)phenyl)ethyl)-6-(2-hydroxy-2-methylpropyl)-6-phenyl-1,3-oxazinan-2-one]",38,44,–,0.3,–
"C[C@@H](c1ccc(-c2ccc(=O)n(C(F)F)c2)cc1)N1CC[C@](CC(C)(C)O)(c2ccccc2)OC1=O [Example 4, (S)-3-((S)-1-(4-(1-(difluoromethyl)-6-oxo-1,6-dihydropyridin-3-yl)phenyl)ethyl)-6-(2-hydroxy-2-methylpropyl)-6-phenyl-1,3-oxazinan-2-one]",17,21,–,–,–
"C[C@@H](c1ccc(-c2ccn(C(F)F)c(=O)c2)cc1)N1CC[C@](CC(C)(C)O)(c2ccccc2)OC1=O [Example 5, (S)-3-((S)-1-(4-(1-(difluoromethyl)-2-oxo-1,2-dihydropyridin-4-yl)phenyl)ethyl)-6-(2-hydroxy-2-methylpropyl)-6-phenyl-1,3-oxazinan-2-one]",–,29,–,–,–
"C[C@@H](c1ccc(-c2ccc(=O)n(C)c2)cc1)N1CC[C@](CC(C)(C)NS(C)(=O)=O)(c2ccccc2)OC1=O [Example 11, N-(2-methyl-1-((S)-3-((S)-1-(4-(1-methyl-6-oxo-1,6-dihydropyridin-3-yl)phenyl)ethyl)-2-oxo-6-phenyl-1,3-oxazinan-6-yl)propan-2-yl)methanesulfonamide]",–,–,–,0.7,–
"C[C@@H](c1ccc(-c2cc[nH]c(=O)c2)cc1)N1CC[C@](CC(C)(C)C#N)(c2ccccc2)OC1=O [Example 14, 2,2-dimethyl-3-((R)-2-oxo-3-((S)-1-(4-(2-oxo-1,2-dihydropyridin-4-yl)phenyl)ethyl)-6-phenyl-1,3-oxazinan-6-yl)propanenitrile]",18,25,24,–,–
"C[C@@H](c1ccc(-c2ccn(CCF)c(=O)c2)cc1)N1CC[C@](CC(C)(C)O)(c2ccccc2)OC1=O [Example 25, (S)-3-((S)-1-(4-(1-(2-fluoroethyl)-2-oxo-1,2-dihydropyridin-4-yl)phenyl)ethyl)-6-(2-hydroxy-2-methylpropyl)-6-phenyl-1,3-oxazinan-2-one]",30,33,–,–,–
"C[C@@H](c1ccc(-c2ccc(=O)n(C)c2)cc1)N1CC[C@](CCCO)(c2ccccc2)OC1=O [Example 30, (R)-6-(3-hydroxypropyl)-3-((S)-1-(4-(1-methyl-6-oxo-1,6-dihydropyridin-3-yl)phenyl)ethyl)-6-phenyl-1,3-oxazinan-2-one]",–,–,27,–,13.9
"C[C@@H](c1ccc(-c2ccn(C)c(=O)c2)cc1)N1CC[C@](CC(C)(C)O)(c2ccccc2)OC1=O [Example 48, (S)-6-(2-hydroxy-2-methylpropyl)-3-((S)-1-(4-(1-methyl-2-oxo-1,2-dihydropyridin-4-yl)phenyl)ethyl)-6-phenyl-1,3-oxazinan-2-one]",–,–,–,–,8.7
"CC[C@@H](c1ccc(-c2ccc(=O)n(CC)c2)cc1)N1CC[C@](CC(C)(C)O)(c2ccccc2)OC1=O [Example 52, (S)-3-((S)-1-(4-(1-ethyl-6-oxo-1,6-dihydropyridin-3-yl)phenyl)propyl)-6-(2-hydroxy-2-methylpropyl)-6-phenyl-1,3-oxazinan-2-one]",–,–,–,–,9.0
"CCn1cc(-c2ccc([C@H](C)N3CC[C@](CC(C)(C)O)(c4ccccc4)OC3=O)cc2)ccc1=O [Example 53, (S)-3-((S)-1-(4-(1-ethyl-6-oxo-1,6-dihydropyridin-3-yl)phenyl)ethyl)-6-(2-hydroxy-2-methylpropyl)-6-phenyl-1,3-oxazinan-2-one]",–,–,–,–,12.8
"CC[C@@H](c1ccc(-c2ccn(C)c(=O)c2)cc1)N1CC[C@](CC)(c2ccccc2)OC1=O [Example 58, (R)-6-ethyl-3-((S)-1-(4-(1-methyl-2-oxo-1,2-dihydropyridin-4-yl)phenyl)propyl)-6-phenyl-1,3-oxazinan-2-one]",3,8,2,–,–
"CC(C)n1cc(-c2ccc([C@H](C)N3CC[C@](CC(C)(C)O)(c4ccccc4)OC3=O)cc2)ccc1=O [Example 59, (S)-6-(2-hydroxy-2-methylpropyl)-3-((S)-1-(4-(1-isopropyl-6-oxo-1,6-dihydropyridin-3-yl)phenyl)ethyl)-6-phenyl-1,3-oxazinan-2-one]",–,–,37,–,–
"Cc1cc(-c2ccc([C@H](C)N3CC[C@](CC(C)(C)O)(c4ccccc4)OC3=O)cc2)cn(C)c1=O [Example 61, (S)-3-((S)-1-(4-(1,5-dimethyl-6-oxo-1,6-dihydropyridin-3-yl)phenyl)ethyl)-6-(2-hydroxy-2-methylpropyl)-6-phenyl-1,3-oxazinan-2-one]",40,–,18,–,–
"C[C@@H](c1ccc(-c2ccn(CC(F)(F)F)c(=O)c2)cc1)N1CC[C@](CC(C)(C)O)(c2ccccc2)OC1=O [Example 66, (S)-6-(2-hydroxy-2-methylpropyl)-3-((S)-1-(4-(2-oxo-1-(2,2,2-trifluoroethyl)-1,2-dihydropyridin-4-yl)phenyl)ethyl)-6-phenyl-1,3-oxazinan-2-one]",10,18,11,–,5.5
"C[C@@H](c1ccc(-c2ccc(=O)n(C)c2)cc1)N1CC[C@](CC(C)(C)C#N)(c2ccc(F)cc2)OC1=O [Example 69, 3-((R)-6-(4-fluorophenyl)-3-((S)-1-(4-(1-methyl-6-oxo-1,6-dihydropyridin-3-yl)phenyl)ethyl)-2-oxo-1,3-oxazinan-6-yl)-2,2-dimethylpropanenitrile]",38,23,–,–,–
"CCn1cc(-c2ccc([C@H](C)N3CC[C@](CC(C)(C)O)(c4ccccc4)OC3=O)cc2)cc(C)c1=O [Example 70, (S)-3-((S)-1-(4-(1-ethyl-5-methyl-6-oxo-1,6-dihydropyridin-3-yl)phenyl)ethyl)-6-(2-hydroxy-2-methylpropyl)-6-phenyl-1,3-oxazinan-2-one]",–,28,23,–,–

# Further lines, with some results ahead:
IC50 [1] [µM],IC50 [2] [µM],IC50 [3] [µM],Structure (SMILES),Biological Test Example 5 (%) (Plasma protein; Comparator Compounds),Biological Test Example 5 (%) (Plasma protein; Examples)
–,–,18,"CC[C@@H](c1ccc(-c2ccc(=O)n(C)c2)cc1)N1CC[C@](CC(C)(C)O)(c2ccccc2)OC1=O [Example 54, (S)-6-(2-hydroxy-2-methylpropyl)-3-((S)-1-(4-(1-methyl-6-oxo-1,6-dihydropyridin-3-yl)phenyl)propyl)-6-phenyl-1,3-oxazinan-2-one]",–,9.1
–,48,38,"CCn1cc(-c2ccc([C@H](C)N3CC[C@](CC(C)(C)O)(c4ccc(F)cc4)OC3=O)cc2)ccc1=O [Example 62, (S)-3-((S)-1-(4-(1-ethyl-6-oxo-1,6-dihydropyridin-3-yl)phenyl)ethyl)-6-(4-fluorophenyl)-6-(2-hydroxy-2-methylpropyl)-1,3-oxazinan-2-one]",–,–
33,–,17,"Cc1cc(-c2ccc([C@H](C)N3CC[C@](CC(C)(C)O)(c4ccccc4)OC3=O)cc2)cc(=O)n1C [Example 64, (S)-3-((S)-1-(4-(1,6-dimethyl-2-oxo-1,2-dihydropyridin-4-yl)phenyl)ethyl)-6-(2-hydroxy-2-methylpropyl)-6-phenyl-1,3-oxazinan-2-one]",–,–
> 50,> 50,25,"CCn1ccc(-c2ccc([C@H](C)N3CC[C@](CC(C)(C)O)(c4ccccc4)OC3=O)cc2)cc1=O [Example 65, (S)-3-((S)-1-(4-(1-ethyl-2-oxo-1,2-dihydropyridin-4-yl)phenyl)ethyl)-6-(2-hydroxy-2-methylpropyl)-6-phenyl-1,3-oxazinan-2-one]",–,–
41,28,34,"C[C@@H](c1ccc(-c2ccc(=O)n(CC(F)(F)F)c2)cc1)N1CC[C@](CC(C)(C)O)(c2ccccc2)OC1=O [Example 67, (S)-6-(2-hydroxy-2-methylpropyl)-3-((S)-1-(4-(6-oxo-1-(2,2,2-trifluoroethyl)-1,6-dihydropyridin-3-yl)phenyl)ethyl)-6-phenyl-1,3-oxazinan-2-one]",–,–
47,43,28,"CC(C)n1ccc(-c2ccc([C@H](C)N3CC[C@](CC(C)(C)O)(c4ccccc4)OC3=O)cc2)cc1=O [Example 68, (S)-6-(2-hydroxy-2-methylpropyl)-3-((S)-1-(4-(1-isopropyl-2-oxo-1,2-dihydropyridin-4-yl)phenyl)ethyl)-6-phenyl-1,3-oxazinan-2-one]",–,–
17,6,24,"C[C@@H](c1ccc(-c2ccc(=O)[nH]c2)cc1)N1CC[C@](CC(C)(C)C#N)(c2ccccc2)OC1=O [Example 71, 2,2-dimethyl-3-((R)-2-oxo-3-((S)-1-(4-(6-oxo-1,6-dihydropyridin-3-yl)phenyl)ethyl)-6-phenyl-1,3-oxazinan-6-yl)propanenitrile]",–,–
35,41,8,"CCn1c(C)cc(-c2ccc([C@H](C)N3CC[C@](CC(C)(C)O)(c4ccccc4)OC3=O)cc2)cc1=O [Example 72, (S)-3-((S)-1-(4-(1-ethyl-6-methyl-2-oxo-1,2-dihydropyridin-4-yl)phenyl)ethyl)-6-(2-hydroxy-2-methylpropyl)-6-phenyl-1,3-oxazinan-2-one]",–,–
28,–,–,"C[C@@H](c1ccc(-c2ccn(C3CC3)c(=O)c2)cc1)N1CC[C@](CC(C)(C)O)(c2ccccc2F)OC1=O [Example 88, (S)-3-((S)-1-(4-(1-cyclopropyl-2-oxo-1,2-dihydropyridin-4-yl)phenyl)ethyl)-6-(2-fluorophenyl)-6-(2-hydroxy-2-methylpropyl)-1,3-oxazinan-2-one]",–,–

# From patent publication EP2424865B1 (Boehringer Ingelheim International GmbH, priority 2009, dated 2010)
